Consider five molecules from patent publication US20180186742A1, “PICOLINAMIDES AS FUNGICIDES” (Dow AgroSciences LLC, priority 2017, published 2018).

Common to all, as to assay type: in vivo
Assay [1] deals with Glomerella lagenarium; Anamorph: Colletotrichum lagenarium. Nature of the assay: Cucumber anthracnose (COLLLA), disease control on cucumber seedlings. Particulars: Colletotrichum orbiculare, 1DP test at 100 ppm, read-out: COLLLA disease control rating. As to the method: Technical grades of materials were dissolved in acetone, which were then mixed with nine volumes of water containing 110 ppm Triton X-100. The fungicide solutions were applied onto wheat seedlings using an automated booth sprayer to run-off. All sprayed plants were allowed to air dry prior to further handling. All fungicides were evaluated using the aforementioned method for their activity vs. all target diseases, unless stated otherwise. Wheat leaf blotch and brown rust activity were also evaluated using track spray applications, in which case the fungicides were formulated as EC formulations, containing 0.1% Trycol 5941 in the spray solutions. Cucumber seedlings (variety Bush Pickle) were propagated in soil-less Metro mix, with each pot having one plant, and used in the test when 12 to 14 days old. Test plants were inoculated with an aqueous spore suspension of Colletotrichum lagenarium 24 hr after fungicide treatments. After inoculation the plants were kept in a dew room at 22° C. with 100% relative humidity for 48 hr to permit spores to germinate and infect the leaf. The plants were then transferred to a growth room set at 22° C. for disease to develop. Fungicide formulation, application and disease assessment on the sprayed leaves followed the procedures as described in the Example A.

The test system of another assay is Uncinula necator. Nature of the assay: Grape powdery mildew (UNCINE), disease control on grape seedlings. As to conditions: Erysiphe necator, 24 h, 1DP (1 Day Protectant) test at 100 ppm. The method, then: Technical grades of materials were dissolved in acetone, which were then mixed with nine volumes of water containing 110 ppm Triton X-100. The fungicide solutions were applied onto wheat seedlings using an automated booth sprayer to run-off. All sprayed plants were allowed to air dry prior to further handling. All fungicides were evaluated using the aforementioned method for their activity vs. all target diseases, unless stated otherwise. Wheat leaf blotch and brown rust activity were also evaluated using track spray applications, in which case the fungicides were formulated as EC formulations, containing 0.1% Trycol 5941 in the spray solutions. Grape seedlings (variety Carignane) were grown in soil-less Metro mix, with one plant per pot, and used in the test when approximately 1 month old. Plants were inoculated 24 hr after fungicide treatment by shaking spores from infected leaves over test plants. Plants were maintained in a greenhouse set at 20° C. until disease was fully developed. Fungicide formulation, application and disease assessment on sprayed leaves followed the procedures as described in the Example A.

Another assay has as its system Alternaria solani. The assay is described as follows: Tomato early blight (ALTESO), disease control on tomato plants. As to conditions: 1DP test at 100 ppm, read-out: ALTESO disease control rating. As to the method:
Technical grades of materials were dissolved in acetone, which were then mixed with nine volumes of water containing 110 ppm Triton X-100. The fungicide solutions were applied onto wheat seedlings using an automated booth sprayer to run-off. All sprayed plants were allowed to air dry prior to further handling. All fungicides were evaluated using the aforementioned method for their activity vs. all target diseases, unless stated otherwise. Wheat leaf blotch and brown rust activity were also evaluated using track spray applications, in which case the fungicides were formulated as EC formulations, containing 0.1% Trycol 5941 in the spray solutions. Tomato plants (variety Outdoor Girl) were propagated in soil-less Metro mix, with each pot having one plant, and used when 12 to 14 days old. Test plants were inoculated with an aqueous spore suspension of Alternaria solani 24 hr after fungicide treatments. After inoculation the plants were kept in 100% relative humidity (one day in a dark dew chamber followed by two to three days in a lighted dew chamber at 20° C.) to permit spores to germinate and infect the leaf. The plants were then transferred to a growth room at 22° C. for disease to develop. Fungicide formulation, application and disease assessment on the sprayed leaves followed the procedures as described in the Example A.

Assay [2] deals with Magnaporthe grisea; Anamorph: Pyricularia oryzae. Nature of the assay: whole plant or invertebrate. As to conditions: 24 h, read-out: PYRIOR Disease Control.
The test system of another assay is Rhyncosporium secalis. Nature of the assay: Barley scald (RHYNSE), disease control on barley seedlings. Particulars: Hordeum vulgare, 24 h, 1DP (1 Day Protectant) test at 100 ppm. The method, then: Technical grades of materials were dissolved in acetone, which were then mixed with nine volumes of water containing 110 ppm Triton X-100. The fungicide solutions were applied onto wheat seedlings using an automated booth sprayer to run-off. All sprayed plants were allowed to air dry prior to further handling. All fungicides were evaluated using the aforementioned method for their activity vs. all target diseases, unless stated otherwise. Wheat leaf blotch and brown rust activity were also evaluated using track spray applications, in which case the fungicides were formulated as EC formulations, containing 0.1% Trycol 5941 in the spray solutions. Barley seedlings (variety Harrington) were propagated in soil-less Metro mix, with each pot having 8 to 12 plants, and used in the test when first leaf was fully emerged. Test plants were inoculated by an aqueous spore suspension of Rhyncosporium secalis 24 hr after fungicide treatments. After inoculation the plants were kept in a dew room at 20° C. with 100% relative humidity for 48 hr. The plants were then transferred to a greenhouse set at 20° C. for disease to develop. Fungicide formulation, application and disease assessment on the sprayed leaves followed the procedures as described in the Example A.

The subject of another assay is Cercospora beticola. The assay is described as follows: Leaf spot of sugar beets (CERCBE), disease control on sugar beet plants. Particulars: 1DP test at 100 ppm, read-out: CERCBE disease control rating. The method, then: Technical grades of materials were dissolved in acetone, which were then mixed with nine volumes of water containing 110 ppm Triton X-100. The fungicide solutions were applied onto wheat seedlings using an automated booth sprayer to run-off. All sprayed plants were allowed to air dry prior to further handling. All fungicides were evaluated using the aforementioned method for their activity vs. all target diseases, unless stated otherwise. Wheat leaf blotch and brown rust activity were also evaluated using track spray applications, in which case the fungicides were formulated as EC formulations, containing 0.1% Trycol 5941 in the spray solutions. Sugar beet plants (variety HH88) were grown in soil-less Metro mix and trimmed regularly to maintain a uniform plant size prior to test. Plants were inoculated with a spore suspension 24 hr after fungicide treatments. Inoculated plants were kept in a dew chamber at 22° C. for 48 hr then incubated in a greenhouse set at 24° C. under a clear plastic hood with bottom ventilation until disease symptoms were fully expressed. Fungicide formulation, application and disease assessment on the sprayed leaves followed the procedures as described in the Example A.

Take `COCCC(=O)Oc1c(OC)ccnc1C(=O)N[C@@H](C)C(=O)O[C@@H](C)[C@H](c1ccc(F)cc1C)C(C)C` [Compound 220]: the pest or weed control at 100 ppm was < 80% in assay [1]; > 80% in the assay with Uncinula necator; < 80% with Alternaria solani; > 80% in assay [2]; < 80% in the assay on Rhyncosporium secalis; > 80% in the assay with Cercospora beticola.

For the molecule `CCOC(=O)Oc1c(OC)ccnc1C(=O)N[C@@H](C)C(=O)O[C@@H](C)[C@H](c1ccc(F)cc1C)C(C)C` [Compound 372], the pest or weed control at 100 ppm in assay [1] is > 80%; in the assay on Uncinula necator, > 80%; with Alternaria solani it was > 80%; in assay [2] it was < 80%; in the assay on Rhyncosporium secalis, < 80%; with Cercospora beticola it was > 80%.

For `COc1ccnc(C(=O)N[C@@H](C)C(=O)O[C@@H](C)[C@H](c2ccc(F)cc2C)C(C)C)c1OC(=O)C(C)C` [Compound 216], the pest or weed control at 100 ppm is < 80% in assay [1]; > 80% with Uncinula necator; < 80% with Alternaria solani; > 80% in assay [2]; < 80% in the assay with Rhyncosporium secalis; > 80% with Cercospora beticola.

For `COc1ccnc(C(=O)N[C@@H](C)C(=O)O[C@@H](C)[C@H](c2cccc(F)c2C)C(C)C)c1OC(C)=O` [Compound 359], the pest or weed control at 100 ppm in assay [1] is > 80%; in the assay with Uncinula necator, > 80%; with Alternaria solani, < 80%; in assay [2] it was > 80%; in the assay on Rhyncosporium secalis, > 80%; in the assay on Cercospora beticola it was > 80%.

For the molecule `CCC(CC)[C@@H](c1ccc(F)cc1C)[C@H](C)OC(=O)[C@H](C)NC(=O)c1nccc(OC)c1OC(C)=O` [Compound 187], the pest or weed control at 100 ppm in assay [1] is > 80%; in the assay with Uncinula necator it was > 80%; in the assay on Alternaria solani, < 80%; in assay [2] it was > 80%; in the assay on Rhyncosporium secalis, > 80%; in the assay with Cercospora beticola, > 80%.
